In patent US9212214B2, “Methods of increasing the expression yield of vitamin K-dependent proteins” (CSL Limited, priority 2009, dated 2015):

What was measured:
[1] = tested on: CHO-S cell line expressing rIX-FP; assay: Flask productivity assay (Experiment 1): FIX activity, FIX antigen; assay type: cell-based, Chinese hamster; settings: for Ratio (activity/antigen) / Activity (Factor IX activity) / Antigen (Factor IX antigen): double addition; for Activity (Factor IX activity) / Antigen (Factor IX antigen): 50 ng/ml, mean of duplicate flasks
Procedure: (§1) Cell counts were performed utilising the Innovartis Cedex automated cell counter in accordance with the manufacturers instructions. Glucose, lactate, ammonia and glutamine assays were performed utilising the Yellow Springs Instruments (YSI) 7100 analyser in accordance with the manufacturers instructions. Off-line determination of dissolved carbon dioxide concentrations were performed using the RapidLab 248 Blood Gas Analyser from Siemens (formerly Bayer) in accordance with the manufacturer's instructions. Antigen assay was performed using an internal procedure ELISA for Quantitation of Factor IX Antigen. The Factor IX Activity assay was performed using the “BIOPHEN FIX” chromogenic FIX test. Sampling was performed daily from the point of inoculation for all assays.
The Flask productivity assay was performed as described below.
A CHO-S cell line expressing rIX-FP was used and cultured in an alternative commercially obtainable serum-free chemically defined medium specifically designed for the production of recombinant proteins in CHO cells (“Medium B”) with 8 mM L-glutamine. In the N−1 and N (with N being the last passage number) passage 50 ng/ml MSB was added. Another addition was performed at 48 hours post inoculation. Cultures were inoculated at 2×10^5 viable cells/mL at a 30 mL volume in a 125 mL shake flask, cultured at 37 C, 5% CO2, 125 rpm in a humidified incubator (Multitron, Infors HT). Samples were assayed for cell density, cell viability, rIX-FP activity and antigen content.
Experiment 1 was performed to assess the effect of reduced MSB on culture performance compared to additions of MSB in a flask format. The cells were subjected to the standard flask productivity assay with assays for cell density, Factor IX antigen and Factor IX activity performed.

CHO-K1 clone A5 (rIX-FP) = assay: Extended draw-fill reactor culture (Experiment 3): rIX-FP activity, antigen, cell growth; assay type: cell-based, Chinese hamster; settings: for Ratio / Activity / Antigen: extended draw-fill; for Activity / Antigen: approx. 7 L
Procedure: as §1
The CHO-K1 clone A5 was cultivated under extended draw-fill conditions with two media, Media A and yet another commercially obtainable serum-free chemically defined medium specifically designed for the production of recombinant proteins in CHO cells: Media C. While comparing the performance of the media, the effect of the addition of MSB or reduced MSB was assessed (Table 5). As with previous experiments the outputs from this investigation were growth parameters of the cell and the production of active rIX-FP molecule and rFIX-FP antigen.

rIX-FP CHO-K1 clone = assay: Reactor fed-batch culture (Experiment 2): rIX-FP activity, antigen, cell growth; assay type: cell-based, Chinese hamster; settings: for Activity (total active produced) / Antigen (total antigen produced) / viable cell densities / growth profile / Ratio (active molecule to antigen): fed-batch; for Activity (total active produced) / Antigen (total antigen produced): Medium A, approx. 4 L; for Activity (total active produced) / Antigen (total antigen produced) / Ratio (active molecule to antigen): up to 192 hour post inoculation; for viable cell densities / growth profile: reduced versus non-reduced MSB
Procedure: The medium used for the propagation was a commercially obtainable serum-free chemically defined medium specifically designed for the production of recombinant proteins in CHO cells: “Medium A”. The clones utilised the Lonza glutamine synthetase (GS) system and were passaged in the absence of glutamine with selection maintained by 25 uM methionine sulfoximine (MSX). In the last culture stage, used for productivity measurement, both glutamine and MSX were not added to the medium.
Vitamin K is essential to the cell for the production of active recombinant Factor IX, due to the Vitamin K-dependent gamma-carboxylation of the molecule. In experiments describing the present invention Vitamin K3 in the form of Menadione sodium bi-sulphate (MSB, Sigma) was chosen as the source of Vitamin K as this form is water soluble and thus readily accessible to the cell. Addition of MSB occurred daily at a concentration of 50 ng/ml.
Due to the inherent unstable nature of the reduced MSB, quantification of exact concentrations of the reduced MSB was not available at the time of experimentation. Therefore all stated concentrations of reduced MSB are calculated values derived from the starting concentration of MSB at the commencement of the reduction process. It is anticipated that the actual reduced MSB concentration is less than the calculated amount due to some small losses occurring through the reduction process.
The reactors were Sartorius/Braun 5 L dished bottom glass reactors, with a single Rushton Impeller for agitation and a ring sparger. All reactor cultures were performed under the following conditions unless otherwise stated.
as §1
Under reactor fed-batch conditions a rIX-FP CHO-K1 clone was cultivated under the standard conditions. This experiment assessed the cell growth, antigen production and active rIX-FP production from the cell under either MSB addition or reduced MSB addition. The feed utilised in this experiment was glucose based (100 g/l) supplemented with the following amino acids: • ? Asparagine at 21.4 g/L; • ? Cysteine at 5.6 g/L; • ? Aspartic acid at 5 g/L.
The reactor test conditions were Reactor A4 utilising a non-reduced MSB addition and Reactor B4 utilising a reduced MSB addition. In both reactors Medium A was used as described in Example 4.

[2] = tested on: CHO-S cell line expressing rIX-FP; assay: Flask productivity assay (Experiment 1): FIX activity, FIX antigen; assay type: cell-based, Chinese hamster; settings: single addition; for Activity (Factor IX activity) / Antigen (Factor IX antigen): 50 ng/ml, mean of duplicate flasks
[3] = tested on: CHO-S cells expressing albumin fused Factor VII; assay: Specific activity of albumin-fused Factor VII expressed in bioreactor culture (Experiment 6); assay type: cell-based, Chinese hamster; settings: albumin-fused FVII; 50 ng/ml increased daily to 250 ng/ml; MSB n = 4, rMSB n = 25
Procedure: An albumin fused Factor VII was cloned and expressed in CHO-S cells as described in Thromb. Haemost. 2008 April; 99(4):659-67.
Cultivation of mammalian cells occurred under either batch or fed-batch conditions at a starting volume of 3 liters in a 5 liter bioreactor system. Controlled parameters were temperature (37° C.), pH (7.2), agitation (250 rpm) and dissolved oxygen. The medium used was a commercially available, chemically defined media (CD-CHO, Invitrogen) which was supplemented with MSB or rMSP in a starting concentration of 50 ng/ml. Each day the concentration was increased by 50 ng/ml until on day 5 a maximum concentration of 250 ng/ml was reached, which was then held for the remainder of the cultivation period.
The activity of FVII was determined using a chromogenic assay (COASET® FVII test kit (Chromogenix, 82190063)). The amount of protein was determined via reverse phase HPLC.

gamma carboxylation = settings: cell free system; cited from earlier work
[4] = tested on: Chinese hamster ovary (CHO) cells secreting Factor IX; settings: cited from earlier work

Row | Compound | Ratio (activity/antigen) ([1]; 72 hours) | Activity (Factor IX activity) ([1]; 72 hours) | Antigen (Factor IX antigen) ([1]; 72 hours) | Ratio (activity/antigen) ([1]; 96 hours) | Activity (Factor IX activity) ([1]; 96 hours) | Antigen (Factor IX antigen) ([1]; 96 hours) | Ratio (CHO-K1 clone A5 (rIX-FP); Medium A) | Activity (CHO-K1 clone A5 (rIX-FP); Medium A, 50 ng/ml per day) [U] | Antigen (CHO-K1 clone A5 (rIX-FP); Medium A, 50 ng/ml per day) [U] | Ratio (CHO-K1 clone A5 (rIX-FP); Medium C) | Activity (CHO-K1 clone A5 (rIX-FP); Medium C, 50 ng/ml per day) [U] | Antigen (CHO-K1 clone A5 (rIX-FP); Medium C, 50 ng/ml per day) [U] | amount of active rIX-FP (rIX-FP CHO-K1 clone; fed-batch conditions) [IU] | Activity (total active produced) (rIX-FP CHO-K1 clone) [U] | Antigen (total antigen produced) (rIX-FP CHO-K1 clone) [U] | viable cell densities / growth profile (rIX-FP CHO-K1 clone) | Ratio (active molecule to antigen) (rIX-FP CHO-K1 clone) | Ratio (activity/antigen) ([2]; 72 hours) | Activity (Factor IX activity) ([2]; 72 hours) | Antigen (Factor IX antigen) ([2]; 72 hours) | other results
1 | CC1(S(=O)(=O)[O-])CC(=O)c2ccccc2C1=O.[Na+] (stereo not shown) [MSB, Menadione sodium bisulphite, reference compound] | 0.96 | 431.5 | 451.5 | 0.56 | 649 | 1155.5 | 0.49 | 28864 | 58987 | 0.52 | 23570 | 45443 | 22357 | 22357 | 49479 | very similar growth profiles and maximum cell densities | 0.45 | 0.57 | 357.5 | 625.5 | activity values as percent of the reduced MSB addition values (CHO-K1 clone A5 (rIX-FP); draw-fill, both media types): 94-98%; Ratio (activity/antigen) ([2]; 96 hours): 0.24; Activity (Factor IX activity) ([2]; 96 hours): 629.5; Antigen (Factor IX antigen) ([2]; 96 hours): 2573; Specific Activity, Mean [3]: 313.5 IU/mg
2 | CC1=CC(=O)c2ccccc2C1=O [menadione, 2-methyl-1,4-naphthoquinone] |  |  |  |  |  |  |  |  |  |  |  |  |  |  |  |  |  |  |  |  | promotion of gamma carboxylation (gamma carboxylation): inactive in promoting gamma carboxylation
3 | Cc1cc(O)c2ccccc2c1O [reduced menadione] |  |  |  |  |  |  |  |  |  |  |  |  |  |  |  |  |  |  |  |  | promotion of gamma carboxylation (gamma carboxylation): inactive in promoting gamma carboxylation
4 | Reduced Menadione Sodium Bisulphite [rMSB] | 0.93 | 477 | 514.5 | 0.71 | 902 | 1271 | 0.66 | 30580 | 46254 | 0.62 | 24052 | 38528 | 35444 | 35444 | 38197 | very similar growth profiles and maximum cell densities | 0.93 | 0.97 | 500 | 516 | activity compared with non-reduced MSB additions ([1]; 72 hr): slightly higher than non-reduced MSB additions; activity compared with MSB addition ([1]; 96 hr): greater activity results than that obtained for the MSB addition; cell growth, reduced versus non-reduced MSB (CHO-K1 clone A5 (rIX-FP); draw-fill, 50 ng/ml per day): very little difference in relation to cell growth; antigenic material compared to MSB additions (CHO-K1 clone A5 (rIX-FP); draw-fill, Medium A): 78%; antigenic material compared to MSB additions (CHO-K1 clone A5 (rIX-FP); draw-fill, Medium C): 84%; increase in ratio compared to MSB additions (CHO-K1 clone A5 (rIX-FP); draw-fill, depending on media type): 19-35%; antigenic yield (rIX-FP CHO-K1 clone; fed-batch conditions): 38197 IU; antigenic yield as percent of the MSB value (rIX-FP CHO-K1 clone; fed-batch conditions): 77%; increase in active rIX-FP relative to MSB addition (rIX-FP CHO-K1 clone; fed-batch conditions): 59%; Ratio (activity/antigen) ([2]; 96 hours): 0.86; Activity (Factor IX activity) ([2]; 96 hours): 1070.5; Antigen (Factor IX antigen) ([2]; 96 hours): 1249; Specific Activity, Mean [3]: 392.6 IU/mg
5 | vitamin K |  |  |  |  |  |  |  |  |  |  |  |  |  |  |  |  |  |  |  |  | concentration in cell culture medium at which requirement to elicit active Factor IX reaches saturation [4]: 5 µg/mL
